{"source": "ChEMBL document CHEMBL1135014", "about": "“Synthesis, radiolabeling and preliminary biological evaluation of radiolabeled 5-methyl-6-nitroquipazine, a potential radioligand for the serotonin transporter” (Bioorg Med Chem Lett, 2002)", "key": {"[1]": {"target": "Sodium-dependent serotonin transporter (Rattus norvegicus) (UniProt P31652)", "sequence (P31652 whole entry)": "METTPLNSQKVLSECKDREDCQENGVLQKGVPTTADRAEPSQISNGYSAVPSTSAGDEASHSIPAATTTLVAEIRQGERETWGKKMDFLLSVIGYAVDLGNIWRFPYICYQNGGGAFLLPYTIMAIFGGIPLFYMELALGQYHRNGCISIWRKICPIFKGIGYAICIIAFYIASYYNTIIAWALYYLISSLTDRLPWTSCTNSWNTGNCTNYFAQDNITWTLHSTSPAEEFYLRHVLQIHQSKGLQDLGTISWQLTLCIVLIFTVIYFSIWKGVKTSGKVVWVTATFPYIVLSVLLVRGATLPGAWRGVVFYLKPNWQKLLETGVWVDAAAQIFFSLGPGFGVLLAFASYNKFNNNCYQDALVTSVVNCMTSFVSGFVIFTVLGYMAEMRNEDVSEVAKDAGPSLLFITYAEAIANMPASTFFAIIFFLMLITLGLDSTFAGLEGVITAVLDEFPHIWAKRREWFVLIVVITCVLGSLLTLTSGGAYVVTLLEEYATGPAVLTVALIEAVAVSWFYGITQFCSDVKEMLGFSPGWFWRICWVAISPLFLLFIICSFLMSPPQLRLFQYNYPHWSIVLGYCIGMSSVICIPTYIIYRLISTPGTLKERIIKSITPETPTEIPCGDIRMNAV", "experiment": "Enzyme kinetic constant, Bmax was evaluated against Serotonin transporter"}, "[2]": {"target": "Sodium-dependent serotonin transporter (Rattus norvegicus, UniProt P31652)", "sequence (P31652 whole entry)": "as above", "experiment": "Binding affinity of the radio labeled [3H]5-Methyl-6-nitroquipazine compound against Serotonin transporter in rat frontal cortex homogenates", "type": "tissue-based"}}, "data": [{"smiles": "Cc1c([N+](=O)[O-])ccc2nc(N3CCNCC3)ccc12", "values": [{"measurement": "Bmax", "setting": "[1]", "result": 1530, "unit": "fmol/mg"}, {"measurement": "Kd", "setting": "[2]", "result": 0.051, "unit": "nM"}]}, {"smiles": "O=[N+]([O-])c1ccc2nc(N3CCNCC3)ccc2c1", "note": "[6-NITROQUIPAZINE]", "values": [{"measurement": "Bmax", "setting": "[1]", "result": 1530, "unit": "fmol/mg"}, {"measurement": "Kd", "setting": "[2]", "result": 0.051, "unit": "nM"}]}]}
